According to US20100203614A1, “FATTY ALDEHYDE REDUCTASE” (Utah State University, priority 2009, published 2010):
Where “and” joins values, the source holds several entries; their conditions need not be identical. Equal entries are not always repeated. Entries after “also recorded” stand apart in the source; their conditions may differ. Structures can show the parent of a compound that is named as a salt. Where two headings read alike, the source gives them in different places.

Columns and labels:
MBP-FALDR fusion protein = test: Inhibition of decanal reduction by MBP-FALDR in the presence of NADPH; type: biochemical, Marinobacter aquaeolei VT8; details: for Percent Activity: 100 mM MES pH 6.5, 200 μM NADPH, 250 μM decanal, 125 μg MBP-FALDR, activity remaining vs no inhibitor; for effect on decanal reduction in words: tested at 1.0 mM
Protocol: (§1) For Fatty Aldehyde Continuous Spectrophotometric Assay Development, all assays were performed in a sealed quartz cuvette with a 1 cm path length. The cuvette and solutions were first degassed with argon on a manifold to remove oxygen from the headspace and solutions. Substrates were initially disbursed into a buffer solution containing BSA at a concentration of 0.5 mg/mL by sonication for three ten second intervals using a microtip sonicator (Branson, Danbury, Conn.). The initial assay for pH optimization included a buffer of 100 mM MOPS, 100 mM MES, and 100 mM TAPS. For reduction assays, 75 μL of a 2 mg/mL NADPH stock was added to bring the initial concentration of NADPH in the cuvette to approximately 200 μM, and an approximate absorbance at 340 nm of 1.2 based on the reported extinction coefficient of 6220 M^−1 cm^−1 for NADPH. In all assays, the reaction was run for at least two minutes with the NADPH and substrate present, prior to the addition of any enzyme, to obtain a background oxidation rate of the NADPH.
Finally, the ability of decanol to inhibit reduction of decanal was also tested.
Referring again to Table 2, the inhibition assays were run in 100 mM MES buffer pH 6.5 with 200 μM NADPH, 250 μM decanal and 125 μg of MBP-FALDR fusion protein. All compounds were dissolved in buffer except dipyridyl, which was dissolved in dimethyl sulfoxide (DMSO).

[1] = tested on: MBP-FALDR enzyme (maltose binding protein-fatty aldehyde reductase fusion protein); test: Continuous spectrophotometric assay of fatty aldehyde reductase activity (NADPH oxidation at 340 nm), substrate comparison and kinetics; type: biochemical, Marinobacter aquaeolei VT8; details: for substrate activity in words: compared with decanal; for substrate activity in words / Relative Activity (Percent of Decanal): substrate 100 μg/mL; for Relative Activity (Percent of Decanal): 160 μg enzyme, decanal = 85 nmols/min/mg = 100; for Km: substrate of MBP-FALDR, NADPH, FIG. 2 substrate is cis-11-hexadecenal
Protocol: as §1, with “the NADPH. […] A linear fit of the data was then used to establish the rate, and the initial background rate was subtracted, to determine the rate associated with substrate reduction by the MBP-FALDR enzyme.” for “the NADPH.”
Having established that the MBP-FALDR would utilize NADPH as a substrate, it was possible to employ a continuous spectrophotometric assay to monitor substrate reduction rates based on the loss of absorbance at 340 nm when NADPH is oxidized to NADP^+. Using this assay, it was possible to establish the pH dependence of the reduction reaction. The rate of reaction was highest at pH 6.3, with a steep increase in activity going from 8.0 to 6.3. The rate at 6.3 was only slightly greater than at 6.5 ([…]). Several factors had to be considered in establishing the optimal pH of the assay. The first was the background oxidation of the NADPH without any MBP-FALDR enzyme present. […] The assays were run under an argon atmosphere to minimize oxidation of the NADPH by O2. A further consideration was the rapid degradation that occurs at the lowest pH values. […] So, for standard assays used here, a pH of 6.5 was selected, where the activity was minimally affected by slight variations in pH. The following discussion is useful in understanding some features and benefits of the various embodiments of the invention:
Utilizing the continuous assay to monitor MBP-FALDR activity, the dependence of rate on substrate concentration was determined for all of the commercially available substrates described above. Each assay was repeated multiple times to confirm the results from each single determination. The results obtained for cis-11-hexadecenal are shown in FIG. 2 and are representative of the results obtained for repeated determinations and for the other substrates. […] In addition, several factors could limit the observed activity. All of the substrates tested have limited solubility in aqueous solutions, and must first be suspended in solution via sonication. Even under these conditions, it is likely that the substrates exist inside micelles. The sonication process utilized here could result in the partial degradation of the substrate over time. Additionally, the suspension of the substrate in solution is only temporary, and the substrate slowly separates from aqueous solution. Due to these limitations, the measured activity is likely to be an underestimate of the actual activity. In the cell, the enzyme and substrate are likely associated with the hydrophobic membranes. […] It was also observed that the MBP-FALDR enzyme was unstable over time, even when stored at 4° C., losing as much as 50% of the activity over a period of a week. Though the purification is quite rapid, it is uncertain how much activity is lost during preparation. […]

[2] = target: Marinobacter aquaeolei VT8 fatty aldehyde reductase (SEQ ID NO: 2) as maltose binding protein-fatty aldehyde reductase fusion protein (MBP-FALDR), SEQ ID NO: 3 (Marinobacter nauticus, UniProt A1U2T0); test: Inhibition of decanal reduction by MBP-FALDR; type: biochemical; details: for effect on activity (in words): 1.0 mM
Protocol: as §1, with “the NADPH. […] A linear fit of the data was then used to establish the rate, and the initial background rate was subtracted, to determine the rate associated with substrate reduction by the MBP-FALDR enzyme.” for “the NADPH.”
To probe the possible mechanism of the fatty aldehyde reducatase enzyme comprising the amino acid sequence of SEQ ID NO: 2, applicants again used the MBP-FALDR enzyme and some potential chemical inhibitors were tested for effects on the reduction of decanal by the MBP-FALDR enzyme in the presence of NADPH. In all cases, the compound was tested initially at concentrations of 1.0 mM, and if a significant inhibition was found, lower concentrations were also tested (Table 2). […] At higher concentrations, this was difficult to assess fully, as the dithionite interferes with the absorbance at 340 nm where activity is measured. […] This could be an indication of an active site residue or cofactor that is susceptible to reduction. […] This would indicate that if a transition metal is involved in the catalysis, it is not readily accessible to such chelators. Finally, the ability of decanol to inhibit reduction of decanal was also tested.
Certain embodiments of the invention may be characterized, in part, by the inhibition of the reduction of decanal by a fatty aldehyde reductase enzyme comprised by an amino acid sequence at least 90% identical to the amino acid sequence of SEQ ID NO: 2.
Referring again to Table 2, the inhibition assays were run in 100 mM MES buffer pH 6.5 with 200 μM NADPH, 250 μM decanal and 125 μg of MBP-FALDR fusion protein. All compounds were dissolved in buffer except dipyridyl, which was dissolved in dimethyl sulfoxide (DMSO). […] Activity is reported as the activity remaining in the presence of each compound as a percentage of the activity without any inhibitor present. *Not determined. Each compound was tested multiple times to confirm reproducibility. The remaining activity presented here is the result from a single set of data.

MBP-FALDR enzyme = test: Initial assessment of activity: overnight reaction with NADPH/NADH or NADP+, GC/GC-MS analysis; type: biochemical, Marinobacter aquaeolei VT8; details: with NADP+
Protocol: For initial assessment of the activity of the purified MBP-FALDR enzyme, 50 μg of purified MBP-FALDR protein was added to a reaction mixture containing 100 mM of Tris buffer at pH 7.9, 100 mM NaCl, 2.4 mM of either NADPH or NADH as a reductant, and decanal, oleic acid, and hexadecanol as possible substrates. The assays were run under an argon atmosphere in septa sealed vials overnight at room temperature with constant gentle mixing. The products of the reactions were then extracted from the buffer by adding an equal volume of hexane and organic layer components were analyzed by gas chromatography equipped with a flame ionization detector (Forte HT5 column (SGE Analytical Science, Austin, Tex.), 30 meter by 0.32 mm inner diameter with 0.5 μm film thickness, with argon as a carrier and a temperature ramp from 60° C. to 360° C. increasing at 10° C. per minute). Samples containing new peaks not present in a control sample were also run through a gas chromatograph equipped with a mass spectrometer (Shimadzu GC-2010 and GCMS-QP2010S) to assign the identity of the product.
Preliminary experiments were run with the MBP-FALDR enzyme to probe possible substrates by mixing either NADH or NADPH with an aldehyde (decanal), alcohol (hexadecanol) or fatty acid (oleic acid) and then looking for changes in concentration of one or more of the potential substrates by GC analysis. The assays were allowed to run overnight in a sealed vial under an atmosphere of argon to maintain the reduced forms of the nicotinamide coenzymes. […] This initial result pointed to the likelihood that the MBP-FALDR enzyme is an NADPH-dependent fatty aldehyde reductase, and further experiments were run to characterize this activity. […] The activity of medium chain alcohol dehydrogenases from a broad range of species show rates of oxidation of alcohols that are 10% of the rates of the reduction of the corresponding aldehyde, so it is possible that this rate is too low to detect.

[3] = reduction of decanal with NADPH

O[C@H](CS)[C@H](O)CS (racemic) [Dithiothreitol]
Percent Activity (MBP-FALDR fusion protein; inhibitor 1.0 mM): 76%

O=C1O[C@H]([C@@H](O)CO)C(O)=C1O [Ascorbic Acid]
Percent Activity (MBP-FALDR fusion protein; inhibitor 1.0 mM): 76%

O=Cc1ccccc1 [Benzaldehyde]
substrate activity in words [1]: no apparent activity | Relative Activity (Percent of Decanal) [1]: <1% of Decanal

CCCC=O [Butanal]
substrate activity in words [1]: no apparent activity | Relative Activity (Percent of Decanal) [1]: <1% of Decanal

c1ccc(-c2ccccn2)nc1 [Dipyridyl]
Percent Activity (MBP-FALDR fusion protein; inhibitor 0.25 mM): 59% | Percent Activity (MBP-FALDR fusion protein; inhibitor 1.0 mM): 46% | effect on decanal reduction in words (MBP-FALDR fusion protein): moderate inhibition | effect on activity (in words) [2, 3]: only a moderate inhibition of activity

O=S(O)S(=O)O [Dithionite]
Percent Activity (MBP-FALDR fusion protein; inhibitor 0.25 mM): 8% | Percent Activity (MBP-FALDR fusion protein; inhibitor 1.0 mM): 25% | effect on decanal reduction in words (MBP-FALDR fusion protein): significant decrease in activity | Percent Activity (activity remaining in presence of inhibitor) ([2]; 0.25 mM inhibitor, 100 mM MES pH 6.5, 200 μM NADPH, 250 μM decanal, 125 μg MBP-FALDR, % of activity without inhibitor): 8% | inhibition (in words) ([2]; 250 μM, reduction of decanal with NADPH, compared with higher concentration): the inhibition is more pronounced | Percent Activity (activity remaining in presence of inhibitor) ([2]; 1.0 mM inhibitor, 100 mM MES pH 6.5, 200 μM NADPH, 250 μM decanal, 125 μg MBP-FALDR, % of activity without inhibitor): 25% | effect on activity (in words) [2, 3]: significant decrease in activity

CCCCCCCCCCCC=O [Dodecanal]
substrate activity in words [1]: activity was lower | Relative Activity (Percent of Decanal) [1]: 55% of Decanal | Km ([1]; Michaelis-Menten fit): ~200 µM

CCCCCCCCCCCCO [Dodecanol]
Percent Activity (MBP-FALDR fusion protein; inhibitor 0.25 mM): 55% | Percent Activity (MBP-FALDR fusion protein; inhibitor 1.0 mM): 54%

O=C(O)CN(CCN(CC(=O)O)CC(=O)O)CC(=O)O [EDTA (Disodium Salt)]
effect on activity (in words) [2, 3]: little effect on the activity | inhibition at 1000 µM ([2]; pH 6.5, read-out: Percent Activity (activity remaining in presence of inhibitor)): 81%

CCCCCC=O [Hexanal]
substrate activity in words [1]: no apparent activity | Relative Activity (Percent of Decanal) [1]: <1% of Decanal

CCCCCCCC=O [Octanal]
substrate activity in words [1]: approximately half the activity obtained for decanal | Relative Activity (Percent of Decanal) [1]: 52% of Decanal | Km ([1]; Michaelis-Menten fit): ~750 µM

CCCC/C=C\CCCCCCCCCC=O [cis-11-hexadecenal]
Vmax (maximum velocity) ([1]; Michaelis-Menten fit, substrate cis-11-hexadecenal (FIG. 2)): 63 nmol/min/mg | substrate activity in words [1]: slightly lower than that obtained for decanal; also recorded: activity comparable to decanal | Relative Activity (Percent of Decanal) [1]: 87% of Decanal | Km ([1]; Michaelis-Menten fit): ~177 µM and 177 µM

CCCCCCCCCCCCCCCCO [hexadecanol]
reverse reaction: aldehyde production by GC (MBP-FALDR enzyme): no detectable levels

OCCS [β-Mercaptoethanol]
inhibition at 1000 µM ([2]; 1.0 mM inhibitor, 100 mM MES pH 6.5, 200 μM NADPH, 250 μM decanal, 125 μg MBP-FALDR, % of activity without inhibitor, read-out: Percent Activity (activity remaining in presence of inhibitor)): 75%
